Reference: PMC8185074, “Anchor extension: a structure-guided approach to design cyclic peptides targeting enzyme active sites” (Nature Communications, 2021)
Peptide text beside a SMILES is read from it.

Key:
Format in all cases: biochemical
HDAC2 [1] = target: T1, HDAC2 (Homo sapiens, UniProt Q92769); test: Initial HDAC2 IC50 estimate (BPS Biosciences HDAC fluorogenic assay kit)
T1 construct: purchased Reaction Biology Corporation (assay run by the CRO)
Description: Initial IC50 values were estimated using HDAC fluorogenic assay kits from BPS Biosciences (HDAC2, HDAC4, and HDAC6) following the protocol described in the kit. All the measures were performed in duplicates or triplicates. These measurements were done either on full range of concentrations (1:10 dilution from 1 µM to 100 pM) or on two concentrations only (20 nM and 200 nM) as an estimate of the range. […] Source Data are provided as a Source Data file.

HDAC2 [2] = target: T1, HDAC2; test: HDAC2 inhibition, full IC50 measurement (Reaction Biology; fluorogenic p53 peptide RHKK(Ac)AMC); conditions: t1
Description: (§1) The assay was performed using 50 μM fluorogenic peptide from p53 residues 379-382 [RHKK(Ac)AMC] in a base reaction buffer of 50 mM Tris-HCl at pH 8.0, 137 mM NaCl, 2.7 mM KCl, 1 mM MgCl2, and freshly added 1 mg/ml BSA and 1% DMSO. Peptides were first dissolved in DMSO and then added to the reaction mixture with the enzyme using acoustic technique, enough to reach the desired concentration for that assay point. Peptide concentrations were calculated based on mass of lyophilized peptide and its molecular weight. The substrate was then added and incubated for 1 hour at 30 °C in a sealed container. After the incubation, developer was added to stop the reaction and develop color. Kinetic measurements were then performed for 20 min with Envision with 5 min intervals (Ex/Em = 360/460 nm). The endpoint after plateau was taken for IC50 measurement.
(§2) In cases where duplicate measures are used, average data is reported in the main text or Supplementary Tables.

HDAC3 = target: T2, HDAC3 (Homo sapiens, UniProt O15379); test: HDAC3 inhibition, full IC50 measurement (Reaction Biology; fluorogenic p53 peptide RHKK(Ac)AMC); conditions: t1
T2 construct: purchased Reaction Biology Corporation (assay run by the CRO)
T2 sequence (O15379 whole entry): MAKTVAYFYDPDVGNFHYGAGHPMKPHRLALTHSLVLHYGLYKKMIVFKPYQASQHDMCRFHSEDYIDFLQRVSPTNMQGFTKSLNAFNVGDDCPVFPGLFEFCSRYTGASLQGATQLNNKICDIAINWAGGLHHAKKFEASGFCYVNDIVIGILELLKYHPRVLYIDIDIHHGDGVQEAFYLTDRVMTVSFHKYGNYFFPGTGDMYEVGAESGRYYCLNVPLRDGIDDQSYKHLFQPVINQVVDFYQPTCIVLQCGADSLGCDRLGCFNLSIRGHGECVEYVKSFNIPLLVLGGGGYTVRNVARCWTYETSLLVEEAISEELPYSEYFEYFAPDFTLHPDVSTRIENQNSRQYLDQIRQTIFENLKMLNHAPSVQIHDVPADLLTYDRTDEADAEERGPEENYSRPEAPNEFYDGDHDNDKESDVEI
T2 sequence (Q9Y618 395-489 partner limits assumed): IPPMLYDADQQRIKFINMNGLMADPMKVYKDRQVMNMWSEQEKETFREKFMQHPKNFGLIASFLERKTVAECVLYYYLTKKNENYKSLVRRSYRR
Description: as §1, §2

HDAC6 = target: T3, HDAC6 (Homo sapiens, UniProt Q9UBN7); test: HDAC6 inhibition, full IC50 measurement (Reaction Biology; fluorogenic p53 peptide RHKK(Ac)AMC); conditions: t1
T3 construct: purchased Reaction Biology Corporation (assay run by the CRO)
T3 sequence (Q9UBN7 1-1215): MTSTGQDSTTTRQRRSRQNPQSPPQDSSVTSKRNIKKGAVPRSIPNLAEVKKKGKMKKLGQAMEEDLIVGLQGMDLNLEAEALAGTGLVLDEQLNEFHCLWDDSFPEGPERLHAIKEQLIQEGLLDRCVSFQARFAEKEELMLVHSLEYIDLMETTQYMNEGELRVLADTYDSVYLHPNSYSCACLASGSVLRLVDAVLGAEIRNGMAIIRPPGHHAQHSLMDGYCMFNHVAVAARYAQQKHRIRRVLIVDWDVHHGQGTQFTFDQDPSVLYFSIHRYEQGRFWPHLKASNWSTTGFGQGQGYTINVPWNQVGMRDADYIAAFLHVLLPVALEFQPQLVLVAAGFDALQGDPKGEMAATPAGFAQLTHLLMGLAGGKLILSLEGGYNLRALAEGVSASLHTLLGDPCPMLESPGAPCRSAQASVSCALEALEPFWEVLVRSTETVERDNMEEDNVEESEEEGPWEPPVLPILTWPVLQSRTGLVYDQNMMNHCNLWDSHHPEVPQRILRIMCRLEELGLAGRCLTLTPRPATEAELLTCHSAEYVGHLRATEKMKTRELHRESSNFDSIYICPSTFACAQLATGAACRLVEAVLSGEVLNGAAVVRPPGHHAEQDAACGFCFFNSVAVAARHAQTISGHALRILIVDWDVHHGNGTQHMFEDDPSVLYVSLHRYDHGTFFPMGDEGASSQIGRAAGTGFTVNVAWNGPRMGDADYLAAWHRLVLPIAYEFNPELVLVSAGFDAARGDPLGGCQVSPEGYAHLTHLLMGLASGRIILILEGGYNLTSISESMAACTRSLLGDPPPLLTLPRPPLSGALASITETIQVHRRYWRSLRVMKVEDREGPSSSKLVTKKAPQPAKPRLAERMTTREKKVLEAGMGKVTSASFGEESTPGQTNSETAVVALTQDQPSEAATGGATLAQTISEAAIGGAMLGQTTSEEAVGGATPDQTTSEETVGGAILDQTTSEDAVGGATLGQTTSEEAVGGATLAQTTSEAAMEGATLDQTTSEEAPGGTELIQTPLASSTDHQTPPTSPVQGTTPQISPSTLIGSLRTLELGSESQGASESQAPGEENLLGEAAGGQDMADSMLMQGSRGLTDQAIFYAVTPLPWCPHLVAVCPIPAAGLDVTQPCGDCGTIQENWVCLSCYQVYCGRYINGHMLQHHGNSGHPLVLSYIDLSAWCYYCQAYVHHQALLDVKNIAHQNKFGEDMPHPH
Description: as §1, §2

HDAC8 = target: T4, HDAC8 (Homo sapiens, UniProt Q9BY41); test: HDAC8 inhibition, full IC50 measurement (Reaction Biology; fluorogenic p53 peptide RHKK(Ac)AMC); conditions: t1/t2 replicates
T4 construct: purchased Reaction Biology Corporation (assay run by the CRO)
T4 sequence (Q9BY41 1-377): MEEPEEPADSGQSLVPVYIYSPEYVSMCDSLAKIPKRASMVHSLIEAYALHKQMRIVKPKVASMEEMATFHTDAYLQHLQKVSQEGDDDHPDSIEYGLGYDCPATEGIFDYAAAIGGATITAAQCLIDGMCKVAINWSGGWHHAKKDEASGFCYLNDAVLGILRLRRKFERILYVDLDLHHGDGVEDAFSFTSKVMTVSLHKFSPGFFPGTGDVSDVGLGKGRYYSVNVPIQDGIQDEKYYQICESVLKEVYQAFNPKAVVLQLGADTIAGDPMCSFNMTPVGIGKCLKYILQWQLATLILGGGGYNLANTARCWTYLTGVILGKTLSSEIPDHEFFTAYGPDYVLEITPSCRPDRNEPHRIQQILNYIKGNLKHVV
Description: as §1, §2

HDAC1 = target: T5, HDAC1 (Homo sapiens, UniProt Q13547); test: HDAC1 inhibition, full IC50 measurement (Reaction Biology; fluorogenic p53 peptide RHKK(Ac)AMC); conditions: t1/t2 replicates
T5 construct: purchased Reaction Biology Corporation (assay run by the CRO)
T5 sequence (Q13547 whole entry): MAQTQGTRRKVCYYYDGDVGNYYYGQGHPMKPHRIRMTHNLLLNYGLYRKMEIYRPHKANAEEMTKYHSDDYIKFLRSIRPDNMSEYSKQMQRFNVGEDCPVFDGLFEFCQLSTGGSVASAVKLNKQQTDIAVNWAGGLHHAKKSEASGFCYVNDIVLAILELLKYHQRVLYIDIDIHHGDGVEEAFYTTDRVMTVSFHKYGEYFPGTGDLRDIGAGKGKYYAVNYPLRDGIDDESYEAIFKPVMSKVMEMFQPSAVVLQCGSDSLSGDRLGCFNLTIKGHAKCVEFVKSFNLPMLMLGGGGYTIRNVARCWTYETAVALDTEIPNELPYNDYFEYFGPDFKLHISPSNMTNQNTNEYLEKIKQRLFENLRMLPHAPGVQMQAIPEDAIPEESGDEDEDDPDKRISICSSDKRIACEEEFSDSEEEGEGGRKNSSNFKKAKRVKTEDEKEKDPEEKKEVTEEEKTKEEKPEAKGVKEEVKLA
Description: as §1, §2

[3] = HDAC2 activity (initial activity), Supplementary Dataset 2

T1 sequence (Q92769 whole entry): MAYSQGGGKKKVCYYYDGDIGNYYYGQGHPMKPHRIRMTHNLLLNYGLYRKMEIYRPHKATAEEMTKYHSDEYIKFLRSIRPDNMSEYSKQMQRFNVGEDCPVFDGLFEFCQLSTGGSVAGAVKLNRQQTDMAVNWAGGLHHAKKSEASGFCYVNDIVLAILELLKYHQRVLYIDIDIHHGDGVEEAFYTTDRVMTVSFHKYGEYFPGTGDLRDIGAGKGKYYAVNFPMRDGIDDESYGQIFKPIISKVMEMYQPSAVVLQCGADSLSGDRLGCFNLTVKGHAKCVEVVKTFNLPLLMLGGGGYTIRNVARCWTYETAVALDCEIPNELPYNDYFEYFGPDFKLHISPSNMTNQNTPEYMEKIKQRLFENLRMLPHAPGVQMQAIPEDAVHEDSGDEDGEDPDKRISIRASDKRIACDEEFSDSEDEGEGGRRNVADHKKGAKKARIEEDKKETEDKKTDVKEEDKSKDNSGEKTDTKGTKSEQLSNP

NCCCC[C@@H]1NC(=O)[C@@H]2CCCN2C(=O)[C@H](CC(N)=O)NC(=O)[C@H](CCCCCS)NC(=O)CNC(=O)[C@H](Cc2c[nH]c3ccccc23)NC(=O)[C@@H](CCCCN)NC(=O)[C@H](CO)NC1=O [des1.1.4, SHA-Asn-Pro-Lys-Ser-dLys-Trp-Gly] (HELM PEPTIDE1{G.[O=C([C@H](CCCCCS)N[*:1])[*:2]].N.P.K.S.[dK].W}$PEPTIDE1,PEPTIDE1,1:R1-8:R2$$$V2.0)
IC50 (HDAC2 [1]; [3]): 100 nM | IC50 (HDAC2 [1]; HDAC2 activity (initial values for HDAC2 IC50), Supp. Table 4, rough estimates, for promising hits full measurements): 10 to 100 nM

NCCCC[C@@H]1NC(=O)[C@@H]2C[C@@H](O)CN2C(=O)[C@H](CC(N)=O)NC(=O)[C@H](CCCCCS)NC(=O)CNC(=O)[C@H](Cc2c[nH]c3ccccc23)NC(=O)[C@@H](CCCCN)NC(=O)[C@H](CCC(N)=O)NC1=O [des1.1.2, SHA-Asn-Hpr-Lys-Gln-dLys-Trp-Gly] (HELM PEPTIDE1{G.[O=C([C@H](CCCCCS)N[*:1])[*:2]].N.[Hyp].K.Q.[dK].W}$PEPTIDE1,PEPTIDE1,1:R1-8:R2$$$V2.0)
HDAC2 activity raw data (signal) (HDAC2 [2]; Conc. 1.00E-05 M): 101836 | HDAC2 activity raw data (signal) (HDAC2 [2]; Conc. 1.11E-06 M): 502310 | HDAC2 activity raw data (signal) (HDAC2 [2]; Conc. 1.23E-07 M): 836305 | HDAC2 activity raw data (signal) (HDAC2 [2]; Conc. 1.37E-08 M): 962979 | HDAC2 activity raw data (signal) (HDAC2 [2]; Conc. 1.52E-09 M): 1015460 | HDAC2 activity raw data (signal) (HDAC2 [2]; Conc. 3.33E-06 M): 281419 | HDAC2 activity raw data (signal) (HDAC2 [2]; Conc. 3.70E-07 M): 724069 | HDAC2 activity raw data (signal) (HDAC2 [2]; Conc. 4.12E-08 M): 1007771 | HDAC2 activity raw data (signal) (HDAC2 [2]; Conc. 4.57E-09 M): 1082856 | HDAC2 activity raw data (signal) (HDAC2 [2]; Conc. 5.08E-10 M): 1067045 | HDAC3 activity raw data (signal) (HDAC3; Conc. 1.00E-05 M): 22366 | HDAC3 activity raw data (signal) (HDAC3; Conc. 1.11E-06 M): 160146 | HDAC3 activity raw data (signal) (HDAC3; Conc. 1.23E-07 M): 601268 | HDAC3 activity raw data (signal) (HDAC3; Conc. 1.37E-08 M): 1087451 | HDAC3 activity raw data (signal) (HDAC3; Conc. 1.52E-09 M): 1408573 | HDAC3 activity raw data (signal) (HDAC3; Conc. 3.33E-06 M): 60464 | HDAC3 activity raw data (signal) (HDAC3; Conc. 3.70E-07 M): 337153 | HDAC3 activity raw data (signal) (HDAC3; Conc. 4.12E-08 M): 888364 | HDAC3 activity raw data (signal) (HDAC3; Conc. 4.57E-09 M): 1250419 | HDAC3 activity raw data (signal) (HDAC3; Conc. 5.08E-10 M): 1404307 | HDAC6 activity raw data (signal) (HDAC6; Conc. 1.00E-05 M): 10576 | HDAC6 activity raw data (signal) (HDAC6; Conc. 1.11E-06 M): 35009 | HDAC6 activity raw data (signal) (HDAC6; Conc. 1.23E-07 M): 150676 | HDAC6 activity raw data (signal) (HDAC6; Conc. 1.37E-08 M): 391207 | HDAC6 activity raw data (signal) (HDAC6; Conc. 1.52E-09 M): 551447 | HDAC6 activity raw data (signal) (HDAC6; Conc. 3.33E-06 M): 16992 | HDAC6 activity raw data (signal) (HDAC6; Conc. 3.70E-07 M): 72135 | HDAC6 activity raw data (signal) (HDAC6; Conc. 4.12E-08 M): 256776 | HDAC6 activity raw data (signal) (HDAC6; Conc. 4.57E-09 M): 497632 | HDAC6 activity raw data (signal) (HDAC6; Conc. 5.08E-10 M): 597163 | HDAC8 activity raw data (signal) (HDAC8; peptide conc. 1.00E-05 M): 21213376 | HDAC8 activity raw data (signal) (HDAC8; peptide conc. 1.11E-06 M): 37632401 | HDAC8 activity raw data (signal) (HDAC8; peptide conc. 1.23E-07 M): 42211938 | HDAC8 activity raw data (signal) (HDAC8; peptide conc. 1.37E-08 M): 48061782 | HDAC8 activity raw data (signal) (HDAC8; peptide conc. 1.52E-09 M): 52470288 | HDAC8 activity raw data (signal) (HDAC8; peptide conc. 3.33E-06 M): 31972513 | HDAC8 activity raw data (signal) (HDAC8; peptide conc. 3.70E-07 M): 43240252 | HDAC8 activity raw data (signal) (HDAC8; peptide conc. 4.12E-08 M): 47347914 | HDAC8 activity raw data (signal) (HDAC8; peptide conc. 4.57E-09 M): 49471078 | HDAC8 activity raw data (signal) (HDAC8; peptide conc. 5.08E-10 M): 54514203 | HDAC1 activity raw data (signal) (HDAC1; peptide conc. 1.00E-05 M): 76959 | HDAC1 activity raw data (signal) (HDAC1; peptide conc. 1.11E-06 M): 410794 | HDAC1 activity raw data (signal) (HDAC1; peptide conc. 1.23E-07 M): 886094 | HDAC1 activity raw data (signal) (HDAC1; peptide conc. 1.37E-08 M): 1048348 | HDAC1 activity raw data (signal) (HDAC1; peptide conc. 1.52E-09 M): 1178275 | HDAC1 activity raw data (signal) (HDAC1; peptide conc. 3.33E-06 M): 193861 | HDAC1 activity raw data (signal) (HDAC1; peptide conc. 3.70E-07 M): 669526 | HDAC1 activity raw data (signal) (HDAC1; peptide conc. 4.12E-08 M): 1039919 | HDAC1 activity raw data (signal) (HDAC1; peptide conc. 4.57E-09 M): 1106752 | HDAC1 activity raw data (signal) (HDAC1; peptide conc. 5.08E-10 M): 1177089

CC(C)C[C@H]1NC(=O)[C@H](Cc2c[nH]c3ccccc23)NC(=O)[C@H](CCCCCS)NC(=O)[C@@H](Cc2ccc(O)cc2)NC(=O)[C@@H]([C@H](C)O)NC(=O)[C@H](Cc2c[nH]cn2)NC(=O)CNC(=O)[C@H]2CCCN2C(=O)[C@@H](CO)NC1=O [des2.2.2, SHA-Trp-dLeu-dSer-dPro-Gly-His-dThr-dTyr] (HELM PEPTIDE1{G.H.[dT].[dY].[O=C([C@H](CCCCCS)N[*:1])[*:2]].W.[dL].[dS].[dP]}$PEPTIDE1,PEPTIDE1,1:R1-9:R2$$$V2.0)
IC50 (HDAC2 [1]; [3]): 500 nM

C[C@@H]1NC(=O)[C@@H](CCCNC(=N)N)NC(=O)[C@H](CCCCCS)NC(=O)[C@H](CCc2ccccc2)NC(=O)[C@@H](CCCNC(=N)N)NC(=O)[C@@H](Cc2ccccc2)NC(=O)[C@@H](CCC(=O)O)NC(=O)[C@@H](CCCCN)NC(=O)[C@@H]2CCCN2C1=O [des3.10.0, SHA-dArg-Ala-Pro-dLys-dGlu-dPhe-dArg-C27] (HELM PEPTIDE1{A.P.[dK].[dE].[dF].[dR].[O=C([C@H](CCc1ccccc1)N[*:1])[*:2]].[O=C([C@H](CCCCCS)N[*:1])[*:2]].[dR]}$PEPTIDE1,PEPTIDE1,1:R1-9:R2$$$V2.0)
IC50 (HDAC2 [1]; [3]): 10 to 100 nM
